Assay results as given in the supplement of paper PMC10307832.

What was measured:
Assay in all cases: relative viability (nuclei count vs DMSO), 5 days (fraction); higher = more cells survive
[1] = compound: C1CNCCC1C2=CC(=NN2)C3=CC=NC=C3 + CC(=O)Nc1cccc(-n2c(=O)n(C3CC3)c(=O)c3c(Nc4ccc(I)cc4F)n(C)c(=O)c(C)c32)c1 [Trametinib] (partner 0.02 µM)
In short: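 The day after seeding in 1536-well plates, lung cancer cell lines were treated by pin tool with a single drug, or with a fixed anchor-drug dose together with five library-drug doses (not always all listed) in √10 steps. After 5 days, a combined fix-and-stain solution (final 0.05% Triton X-100, 1% formaldehyde, 1 ug/ml Hoechst) was added. Nuclei counted on 4× images gave relative viability as treated counts over vehicle counts, reported as the median of duplicate plates.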

[2] = compound: C1CNCCC1C2=CC(=NN2)C3=CC=NC=C3
In short: (§1)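 After an overnight hold at 37 °C, lung cancer cell lines in 1536-well plates were pinned with five library-drug doses (not always all listed), each √10 from the next, on vehicle-anchored plates. The cells stayed 5 days without fresh medium, then a one-step fix, permeabilisation and Hoechst stain preceded 4× imaging and MetaXpress nuclear counts. A plate passed only with control CV under 25% and at least one doubling. Viability is the median, over plates, of treated-well nuclei relative to vehicle-well nuclei.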

Tanzisertib = compound: O[C@H]1CC[C@H](Nc2ncc3nc(Nc4c(F)cc(F)cc4F)n([C@H]4CCOC4)c3n2)CC1 [Tanzisertib]
In short: as §1

[3] = compound: C[C@@H](N)c1ccc(C(=O)Nc2ccnc3[nH]ccc23)cc1
In short: as §1

Cell Line	relative viability ([1]; first compound 0.08 µM)	relative viability ([1]; first compound 0.8 µM)	relative viability ([1]; first compound 2.53 µM)	relative viability ([1]; first compound 8 µM)	relative viability ([2]; 0.08 µM)	relative viability ([2]; 0.8 µM)	relative viability ([2]; 2.53 µM)	relative viability ([2]; 8 µM)	relative viability (Tanzisertib; 0.08 µM)	relative viability (Tanzisertib; 0.253 µM)	relative viability (Tanzisertib; 0.8 µM)	relative viability (Tanzisertib; 2.53 µM)	relative viability (Tanzisertib; 8 µM)	relative viability ([3]; 0.04 µM)	relative viability ([3]; 0.1265 µM)	relative viability ([3]; 0.4 µM)	relative viability ([3]; 1.265 µM)	relative viability ([3]; 4 µM)
NCI-H1755	0.744	0.833	0.755	0.739	1.01	0.915	1.03	0.948	1.02	0.958	1	0.97	0.961	0.911	0.987	0.945	0.937	0.793
NCI-H23	0.372		0.444	0.371	0.866	0.988	1.26	1.14	1.18	1.01	1.06	0.998	0.43	0.895	0.999	1.12		0.826
201T	0.712	0.731	0.753	0.675	0.97	0.993	0.983	0.938	1	0.969	0.997	0.933	0.898	1.01	0.971	1.01	0.976	1.12
NCI-H1734	0.531	0.708	0.668	0.667	0.945	1.01	1.05	0.968	1.25	1.01	0.945	1.06	0.927	0.833	1.08	0.929	0.568	0.819
NCI-H520	0.609	0.776	0.666	0.725	0.899	0.816	0.988	1.03	1.09	0.981	1.03	0.919	0.907	1.14	1.12	0.999	1.03	1.15
NCI-H1650	0.506	0.558	0.569	0.578	0.752	0.995	0.987	0.955	0.953	1	0.93	0.864	0.771	0.933	1.05	0.951	0.977	0.867
NCI-H1355	0.419	0.442	0.466	0.406	0.955	0.957	1.08	0.977	1.08	0.978	1.09	0.96	0.911	0.961	1.01	1.12	0.909	0.986
NCI-H1915	0.289	0.298	0.3	0.299	0.968	1.07	0.999	0.977	1.12	1.04	0.957	1.01	0.875	0.856	1.02	0.962		0.884
BEN	0.769	0.936	1.05	1.02	0.825	0.888	0.984	1.04	0.977	1.01	0.997	1.08	0.832	0.927	0.954	1.04	1.01	0.718
NCI-H3122	0.207	0.222	0.209	0.238	0.978	1.03	1.02	0.988	1.02	0.964	1.03	1	0.936	0.997	1.04	0.975	1	0.894
SK-MES-1	0.553	0.549	0.542	0.578	1.03	0.925	1.05	0.999	1.08	0.984	0.975	0.992	0.808	0.987	0.969	1	0.878	0.82
HOP-62	0.344	0.415	0.425	0.357	1.09	1.11	1.05	1.02	1.1	1.03	1	1.12	1.03	0.957	0.949	1.03	0.884	0.899
HCC-366	0.292	0.428	0.393	0.337	0.969	0.995	1.01	0.999	0.981	1.03	1.01	0.993	0.487	1.01	1.04	1.09		1.03
NCI-H2347	0.264	0.266	0.326	0.262	1.01	0.869	1.08	1.12	1.11	0.956	1.06	1.08	0.965	0.971	0.995	1.14	0.816	0.956
NCI-H1648	0.464	0.483		0.516	0.979	0.826	0.754	0.97	0.97	1.14	0.926	0.97	0.667	1.44	1.21	1.59	1.82	1.37
LXF-289	0.658	0.768	0.653	0.706	1.04	1.05	0.991	1	1.08	0.986	1.07	1.05	1.16	1.03	1	1.03	1.05	0.902
NCI-H1793	0.459		0.414	0.406	0.835	0.702	0.923	0.878	1.07	0.857	0.998	0.758	0.522	0.973	0.952	1.08		1.11
LU99A	0.48	0.616	0.561	0.543	0.948	1.01	1.04	0.946	1.1	1.03	1.03	1.11	0.938		0.989	0.96	0.924	0.692
PC-14	0.64	0.761	0.903	0.763	1.01	1.06	1.13	0.987	1.06	1.07	0.996	0.984	0.546	0.906	0.979	0.995	0.707	0.779
